The results in this text go back to patent US20060058358A1, “Pharmaceutical compositions for the treatment of hyper-proliferative disorders” (priority 2004, published 2006).

A short description of data set [1]: Solubility of the active in the dissolution medium. Format: physicochemical. The note with it: acetate buffer pH 4.5 USP + 0.1% sodium lauryl sulfate, 37°C. As for the experimental part:
Drug dissolution of the new solid dispersion formulations of Example 6 and 7 was studied using the paddle apparatus “Apparatus 2” of the USP 28-NF 23 (The United States Pharmacopoeia USP 28 2005) at a temperature of 37±0.5° C. and a paddle speed of 75 rpm. 900 mL of acetate buffer pH 4.5 USP with the addition of 0.1% (m/V) sodium lauryl sulfate as surfactant was used as dissolution medium. An amount of solid dispersion equivalent to 50 mg of the compound of Formula I as base was inserted in each vessel. During the dissolution test samples were drawn through a filter and the dissolved amount of drug substances was determined by UV spectrometry. The determined amount of active was calculated as % (m/m) of total dose (50mg).
Due to the low solubility of the active only about […] of the 50 mg dose are dissolved. The solid dispersions, however, show fast and almost complete dissolution of the active. […] The solid new pharmaceutical compositions of Example 6 and 7, which contain the active in substantially amorphous form, show clear supersaturation compared to the physical mixture of the active and PVP, and no significant recrystallisation is observed for at least 1 hour. […]

The nature of data set [2]: Comparative oral bioavailability in the rat (Example 19). The note with it: male, Wistar, plasma, 5 mg/kg, oral gavage; for bioavailability: relative to iv bolus 2 mg/kg. Format: in vivo, male Wistar rats. Here is the method:
A single dose of the compounds of Examples 1, 2, 3, 4, and 5 was administered to each of three fasted male Wistar rats (220-250 g; 6-8 weeks old) orally. Compounds of Examples 1-4 were administered by oral gavage in the formulation described in Table 1. The solid dispersion of Example 5 (1.25 mg drug substance in 5 mg PVP-25) was administered in size 9 capsules. One capsule was administered per rat. Approximately 0.4 mL of whole blood was collected via an indwelling jugular catheter at: 0.25, 0.5, 1, 2, 4, 7, 24, and 48 h post-dose. The blood samples were centrifuged (approx. 5 min.) in order to obtain plasma which was then transferred to the appropriately labeled vials and stored frozen (−20° C.) until analysis for parent drug.
Plasma samples were analyzed via LC/MS/MS for parent drug concentrations and pharmacokinetic parameters were calculated using Watson LIMS.
The dose of 5 mg/kg of the pharmaceutical composition of Example 5 means 5 mg of drug substance (compound of Example 1) per kg of body weight. The relative bioavailabilities in the rat are calculated from the data of an intravenous bolus dose of 2 mg/kg in the same strain of rats, using a solution of the active in a Cremophor RH40:ethanol:water (12.5:12.5:75) vehicle. The plasma exposure in the exposure arm of the suspension in 0.5% tylose solution (9.9% F) reflects a crystalline, micronized drug substance with the following characteristics: 208° C. (onset), 211° C. (peak), ΔH=91.4 J/g.

For another data set, the system named is raf. As to the kind of experiment: Inhibition of raf kinase. Conditions: statement in words, no data. It is filed as biochemical.
For the next data set, the target named is VEGFR-2 (Homo sapiens, UniProt P35968). The data set is described as follows: Inhibition of VEGFR-2 kinase. The note with it: statement in words, no data. Format: biochemical.
The test system of another data set is p38. As to the kind of experiment: Inhibition of p38 kinase. Conditions: statement in words, no data. Format: biochemical.
For a further data set, the system named is PDGFR. The data set is described as follows: Inhibition of PDGFR kinase. Format: biochemical. Conditions: statement in words, no data.
The mark [3] stands for this setting: po, 0.5% NaCMC and 0.5% Tween 80 in water.
Where [4] appears, read: po, vehicle 0.5% NaCMC and 0.5% Tween 80 in water.

Sequence of VEGFR-2 (P35968 20-1356, species assumed): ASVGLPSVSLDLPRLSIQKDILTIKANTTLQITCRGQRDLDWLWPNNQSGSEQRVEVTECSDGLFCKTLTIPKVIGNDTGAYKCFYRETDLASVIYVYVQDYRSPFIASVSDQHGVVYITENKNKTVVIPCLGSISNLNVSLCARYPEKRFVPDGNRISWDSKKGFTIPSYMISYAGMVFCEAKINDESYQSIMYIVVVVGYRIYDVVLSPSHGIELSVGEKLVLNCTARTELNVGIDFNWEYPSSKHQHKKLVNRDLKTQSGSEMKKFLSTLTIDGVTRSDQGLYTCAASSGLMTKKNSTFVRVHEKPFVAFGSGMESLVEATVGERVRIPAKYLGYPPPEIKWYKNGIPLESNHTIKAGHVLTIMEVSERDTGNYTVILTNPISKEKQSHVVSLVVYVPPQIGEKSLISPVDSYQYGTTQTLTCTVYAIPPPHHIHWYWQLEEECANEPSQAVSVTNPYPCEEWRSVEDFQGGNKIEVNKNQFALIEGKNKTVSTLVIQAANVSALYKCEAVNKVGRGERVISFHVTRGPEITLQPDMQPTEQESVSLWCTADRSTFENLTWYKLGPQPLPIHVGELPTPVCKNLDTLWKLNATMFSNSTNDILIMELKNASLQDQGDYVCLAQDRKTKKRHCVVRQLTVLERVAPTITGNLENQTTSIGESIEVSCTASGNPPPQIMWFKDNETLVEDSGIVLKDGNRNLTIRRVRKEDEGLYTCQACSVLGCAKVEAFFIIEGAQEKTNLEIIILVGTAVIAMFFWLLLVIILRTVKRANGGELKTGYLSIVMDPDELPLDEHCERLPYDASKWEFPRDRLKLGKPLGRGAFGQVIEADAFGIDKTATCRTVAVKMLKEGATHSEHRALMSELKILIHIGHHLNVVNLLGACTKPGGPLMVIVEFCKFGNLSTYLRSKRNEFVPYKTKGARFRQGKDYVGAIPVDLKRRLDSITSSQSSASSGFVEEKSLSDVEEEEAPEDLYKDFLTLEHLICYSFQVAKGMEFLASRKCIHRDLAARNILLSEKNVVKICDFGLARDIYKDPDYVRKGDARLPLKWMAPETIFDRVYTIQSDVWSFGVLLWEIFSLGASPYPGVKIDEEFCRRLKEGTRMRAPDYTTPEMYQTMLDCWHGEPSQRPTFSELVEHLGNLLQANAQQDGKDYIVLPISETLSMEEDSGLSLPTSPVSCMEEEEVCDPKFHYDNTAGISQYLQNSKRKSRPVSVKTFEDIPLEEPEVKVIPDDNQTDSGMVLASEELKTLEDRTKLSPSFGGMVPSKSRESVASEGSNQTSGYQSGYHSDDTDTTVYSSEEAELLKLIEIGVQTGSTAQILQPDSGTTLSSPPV

Regarding `CNC(=O)c1cc(Oc2ccc(NC(=O)Nc3ccc(Cl)c(C(F)(F)F)c3)c(F)c2)ccn1` [Example 1, 4{4-[3-(4-chloro-3-trifluoromethylphenyl)-ureido]-3-fluorophenoxy}-pyridine-2-carboxylic acid methylamide], in data set [1], the “solubility of the active in this medium” value was found to be 2.3 mg/900 mL. The bioavailability (in general, the share of a dose that reaches the circulation, judged against a reference dose that is usually intravenous) in data set [2] (oral, 0.5% tylose in water) was 9.9%; in data set [2] (setting [3]), 13%; in data set [2] (po, 0.5% tylose in water) it was 10%. Moreover, the area under the curve AUC(0-inf) (as a rule, total exposure, with the tail of the curve extrapolated) stood at 21.8 µg·h/mL in data set [2] (setting [4]) and 17 µg·h/mL in data set [2] (po, vehicle 0.5% tylose in water). Moreover, in the data set on raf, the “inhibition of raf kinase” value was “potent inhibitor”. At VEGFR-2, the “inhibition of VEGFR-2 kinase” value is on record as “potent inhibitor”. For the same compound, in the data set on p38, the “inhibition of p38 kinase” value is “potent inhibitor”. Further, the “inhibition of PDGFR kinase” value in the data set on PDGFR is “potent inhibitor”.

`CNC(=O)c1cc(Oc2ccc(NC(=O)Nc3ccc(Cl)c(C(F)(F)F)c3)c(F)c2)ccn1.Cl` [Example 2, 4{4-[3-(4-chloro-3-trifluoromethylphenyl)-ureido]-3-fluorophenoxy}-pyridine-2-carboxylic acid methylamide hydrochloride] returned a bioavailability in data set [2] (setting [3]) of 7%. Further, the AUC(0-inf) in data set [2] (setting [4]) is 12.1 µg·h/mL.

For the compound `CNC(=O)c1cc(Oc2ccc(NC(=O)Nc3ccc(Cl)c(C(F)(F)F)c3)c(F)c2)ccn1.CS(=O)(=O)O` [Example 3, 4{4-[3-(4-chloro-3-trifluoromethylphenyl)-ureido]-3-fluorophenoxy}-pyridine-2-carboxylic acid methylamide mesylate], the bioavailability in data set [2] (setting [3]) came to 10%. Further, the AUC(0-inf) in data set [2] (setting [4]) came to 16.8 µg·h/mL.

On to `CNC(=O)c1cc(Oc2ccc(NC(=O)Nc3ccc(Cl)c(C(F)(F)F)c3)c(F)c2)ccn1.O=S(=O)(O)c1ccccc1` [Example 4, 4{4-[3-(4-chloro-3-trifluoromethylphenyl)-ureido]-3-fluorophenoxy}-pyridine-2-carboxylic acid methylamide phenylsulfonate], for which the bioavailability in data set [2] (setting [3]) came to 10%. Further, in data set [2] (setting [4]), the AUC(0-inf) was determined as 15.8 µg·h/mL.
